Data set [1] concerns H9 cells. In words: Survival/viability of HIV-infected H9 cells (trypan blue exclusion), % control. The note with it: for viability at 0.01 µg/mL / viability at 0.1 µg/mL / viability at 1 µg/mL / viability at 10 µg/mL / viability at 5 µg/mL: Homo sapiens, H9, 96 h, read-out: Cell Survival (% Control); for viability of cells in the presence of HIV (in words): in vitro.
The nature of data set [2]: Solubility. In kind it is physicochemical. The note with it: Tables I-III.
Data set [3] deals with HIV virus. The note with it: for inhibition of viral replication (in words): about 1 μg/ml; for activity against HIV / inhibition of viral replication (in words): in vitro.
Data set [4] concerns target cells. In words: Toxicity to the cells. In kind it is cell-based.

The values that follow come from patent US5159002A, “Method for purifying dermostatin A and dermostatin B” (Xechem Inc., priority 1990, dated 1992).

“Also recorded” adds a separate entry of the source.

Turning to `C[C@@H]1[C@H](O)[C@@H](C)/C=C/C=C/CC/C=C/C=C/C=C/C=C/[C@H](O[C@@H]2O[C@H](C)[C@@H](O)[C@H](N)[C@@H]2O)C[C@@H]2O[C@](O)(C[C@@H](O)C[C@@H](O)[C@H](O)CC[C@@H](O)C[C@@H](O)CC(=O)O[C@H]1C)C[C@H](O)[C@H]2C(=O)O` [Amphotericin A, reference compound], in data set [1] (Table IV, conc. not printed (line between 10 and 0.1), added with HIV, 4 days), the “Cell Survival (% Control)” value turned out to be 75 % Control.

As for `C[C@@H]1[C@H](O)[C@@H](C)/C=C/C=C/C=C/C=C/C=C/C=C/C=C/[C@H](O[C@@H]2O[C@H](C)[C@@H](O)[C@H](N)[C@@H]2O)C[C@@H]2O[C@](O)(C[C@@H](O)C[C@@H](O)[C@H](O)CC[C@@H](O)C[C@@H](O)CC(=O)O[C@H]1C)C[C@H](O)[C@H]2C(=O)O` [Amphotericin B, reference compound], in data set [1], the viability at 0.01 µg/mL turned out to be 13%, the viability at 0.1 µg/mL was 11%, the viability at 1 µg/mL was determined as 33% and the viability at 10 µg/mL was 73%.

For `CC(C)C1OC(=O)/C=C/C=C/C=C/C=C/C=C/C=C/CC(O)C(C)C(O)CC(O)CC(O)CC(O)CC(O)CC(O)CC(O)CC(O)/C=C/C1C` (stereo not drawn) [Dermostatin A], in data set [2], the Solubility result was “Soluble in MeOH, DMSO, DMF; also recorded: Insoluble in H2 O, pet ether, hexane”. In data set [3], the “inhibition of viral replication (in words)” value is “high levels of inhibition to viral replication have been achieved” and the “activity against HIV / inhibition of viral replication (in words)” value (“activity against HIV / inhibition” below) is “inhibit the ability of the HIV virus to replicate within the lymphocyte after penetration by the virus”. Also, in data set [1], the viability at 0.01 µg/mL is 0%, the viability at 0.1 µg/mL worked out at 18%, the viability at 1 µg/mL was 92% and the viability at 5 µg/mL was determined as 99%. The “viability of cells in the presence of HIV (in words)” value in data set [1] is recorded as “improve the viability of lymphocyte cells in the presence of HIV; also recorded: protective effect”.

On to `CCC(C)C1OC(=O)/C=C/C=C/C=C/C=C/C=C/C=C/CC(O)C(C)C(O)CC(O)CC(O)CC(O)CC(O)CC(O)CC(O)CC(O)/C=C/C1C` (stereo not drawn) [Dermostatin B], for which the Solubility entry in data set [2] is “Soluble in MeOH, DMSO, DMF; also recorded: Insoluble in H2 O, pet ether, hexane”. Further, in data set [3], the “inhibition of viral replication (in words)” value is reported as “high levels of inhibition to viral replication have been achieved” and the “activity against HIV / inhibition” value is given as “inhibit the ability of the HIV virus to replicate within the lymphocyte after penetration by the virus”. Moreover, in data set [1], the viability at 0.01 µg/mL came out at 0%, the viability at 0.1 µg/mL was 0%, the viability at 1 µg/mL is 87% and the viability at 5 µg/mL was 97%. Besides, in data set [1], the “viability of cells in the presence of HIV (in words)” value is given as “improve the viability of lymphocyte cells in the presence of HIV; also recorded: protective effect”.

For the compound `CCCCC[C@@H](O)[C@H]1C(=O)O[C@H](C)[C@@H](O)/C=C/C=C/C=C/C=C/C=C(\C)[C@@H](O)C[C@H](O)C[C@H](O)C[C@H](O)C[C@H](O)C[C@H](O)C[C@@H]1O` [Filipin, reference compound], in data set [3], the “activity against HIV / inhibition” value was “not active against HIV”. Also, in data set [1], the viability at 0.1 µg/mL came out at 48%, the viability at 1 µg/mL was determined as 51% and the viability at 10 µg/mL came out at 49%.

With Candicidin, in data set [4], the “toxicity to the cells (in words)” value is on record as “toxic to the cells; also recorded: its own cytotoxic effects takes its toll on the target cells”. In addition, the “effect against HIV infection at noncytotoxic doses (in words)” value in data set [3] is recorded as “no advantage whatsoever is seen”.
